Measured values as given in paper PMC4151564 (Journal of medicinal chemistry, 2011).

How the values were obtained:
[1] = biological target: T1, eukaryotic topoisomerase IIα (Homo sapiens, UniProt P11388); experiment: Gel-based Topo-IIα inhibition mechanism assay; assay type: biochemical; conditions: 500 μM inhibitor, 4 units enzyme
[2] = biological target: T1, eukaryotic topoisomerase IIα; experiment: Topo-IIα inhibition, agarose gel supercoiled DNA relaxation assay; assay type: biochemical; conditions: for Topo-IIα inhibition at 100 μM: 100 μM TSC ligand, gel Figure 1B
Topo-IIα = conditions: cited from earlier work
[3] = biological target: T1, eukaryotic topoisomerase IIα; conditions: read-out: Topo-IIα inhibition IC50; literature range; cited from earlier work

T1 sequence (P11388 whole entry): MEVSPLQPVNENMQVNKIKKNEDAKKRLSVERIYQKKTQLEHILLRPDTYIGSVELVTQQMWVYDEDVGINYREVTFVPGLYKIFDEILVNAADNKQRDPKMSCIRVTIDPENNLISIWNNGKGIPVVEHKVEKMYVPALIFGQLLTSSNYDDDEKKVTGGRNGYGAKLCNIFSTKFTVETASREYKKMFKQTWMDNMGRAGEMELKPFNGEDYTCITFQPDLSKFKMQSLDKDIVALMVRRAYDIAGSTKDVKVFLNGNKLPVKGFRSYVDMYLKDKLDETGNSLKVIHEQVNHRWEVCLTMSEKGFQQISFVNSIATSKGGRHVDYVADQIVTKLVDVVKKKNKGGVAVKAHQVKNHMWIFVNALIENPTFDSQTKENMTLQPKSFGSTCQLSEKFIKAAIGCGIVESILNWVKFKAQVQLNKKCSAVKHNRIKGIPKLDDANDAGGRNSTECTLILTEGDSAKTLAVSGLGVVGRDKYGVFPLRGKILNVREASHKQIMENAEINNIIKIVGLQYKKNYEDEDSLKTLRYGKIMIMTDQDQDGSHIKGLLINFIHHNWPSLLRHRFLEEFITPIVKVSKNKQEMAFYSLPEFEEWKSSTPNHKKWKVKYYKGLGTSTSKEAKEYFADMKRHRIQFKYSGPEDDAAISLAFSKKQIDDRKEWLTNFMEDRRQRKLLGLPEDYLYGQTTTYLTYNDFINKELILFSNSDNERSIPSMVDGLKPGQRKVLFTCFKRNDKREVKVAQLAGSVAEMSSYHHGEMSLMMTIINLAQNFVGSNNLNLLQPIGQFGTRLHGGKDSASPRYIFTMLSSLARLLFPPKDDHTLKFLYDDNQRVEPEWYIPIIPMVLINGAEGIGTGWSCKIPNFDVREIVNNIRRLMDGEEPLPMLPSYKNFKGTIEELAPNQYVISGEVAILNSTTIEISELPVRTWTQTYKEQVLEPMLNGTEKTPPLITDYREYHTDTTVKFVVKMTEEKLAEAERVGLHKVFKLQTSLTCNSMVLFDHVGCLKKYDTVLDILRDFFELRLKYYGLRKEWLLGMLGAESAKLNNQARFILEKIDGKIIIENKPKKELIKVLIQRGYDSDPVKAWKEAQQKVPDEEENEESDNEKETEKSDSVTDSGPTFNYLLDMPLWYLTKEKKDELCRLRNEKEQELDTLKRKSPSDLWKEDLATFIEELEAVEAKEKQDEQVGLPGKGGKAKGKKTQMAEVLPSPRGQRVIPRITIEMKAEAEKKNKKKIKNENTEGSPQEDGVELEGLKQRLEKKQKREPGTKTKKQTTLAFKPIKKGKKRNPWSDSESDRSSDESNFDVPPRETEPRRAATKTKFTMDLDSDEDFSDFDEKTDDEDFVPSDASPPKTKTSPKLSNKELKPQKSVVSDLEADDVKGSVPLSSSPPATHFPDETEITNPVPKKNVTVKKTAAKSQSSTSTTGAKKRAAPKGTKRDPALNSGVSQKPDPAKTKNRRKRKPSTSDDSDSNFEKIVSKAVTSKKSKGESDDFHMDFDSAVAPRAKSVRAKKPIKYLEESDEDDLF

Molecule	Topo-IIα inhibition mechanism (formation of linear DNA) [1]	Topo-IIα inhibition at 100 μM [2]	further results
2-Formylpyridine-N^4-allylthiosemicarbazonatochlorocopper (II) [Cu(Fp4alT)Cl]	completely inhibits Topo-IIα without promoting the formation of linear DNA products		
[Cl][Cu][Cl] [CuCl2]			Topo-IIα inhibition, control experiment ([2]; any concentrations below 500 μM): does not inhibit the enzyme
CN(C)C(=S)NN=C(c1ccccn1)c1ccccn1 [Dp44mT, di-2-pyridylketone-4,4-dimethylthiosemicarbazone]			concentration at which in vivo Topo-IIα inhibition was found (Topo-IIα): < 1 µM
CCNC(=S)N/N=C(\C)c1ccccn1 [HAp4eT, (E)-N-Ethyl-2-(1-(pyridin-2-yl)ethylidene)hydrazinecarbothioamide]		displaying any degree of inhibition	
CNC(=S)N/N=C(\C)c1ccccn1 [HAp4mT, (E)-N-Methyl-2-(1-(pyridin-2-yl)ethylidene)hydrazinecarbothioamide]		displaying any degree of inhibition	
CCNC(=S)N/N=C/c1ccccn1 [HFp4eT, (E)-N-Ethyl-2-(pyridin-2-ylmethylene)hydrazinecarbothioamide]		displaying any degree of inhibition	
CNC(=S)N/N=C/c1ccccn1 [HFp4mT, (E)-N-Methyl-2-(pyridin-2-ylmethylene) hydrazinecarbothioamide]		displaying any degree of inhibition	
COc1cccc2c1C(=O)c1c(O)c3c(c(O)c1C2=O)C[C@@](O)(C(=O)CO)C[C@@H]3O[C@H]1C[C@H](N)[C@H](O)[C@H](C)O1 [doxorubicin]			IC50 [3]: 1 to 5 µM
Cc1c2ccncc2c(C)c2c1[nH]c1ccccc12 [ellipticine]	produce discrete bands of linear DNA		
O=c1c(-c2ccc(O)cc2)coc2cc(O)cc(O)c12 [genistein]	produce discrete bands of linear DNA		
COc1cc(NS(C)(=O)=O)ccc1Nc1c2ccccc2nc2ccccc12 [m-AMSA]	produce discrete bands of linear DNA		
O=C1NC(=S)NC(=O)C1C(=O)Nc1ccccc1 [merbarone]			IC50 [3]: 40 to 50 µM
